Each cell line was assayed with C[C@@]1(C(=O)Nc2ccc(F)nc2)CCCN1c1nc(Nc2cc(C3CC3)n[nH]2)c2cccn2n1 (assay: relative viability (nuclei count vs DMSO), 5 days (fraction); higher = more cells survive). Settings: 0.04 µM.
Outline: (§1)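 MetaXpress counted nuclei in 4× images of lung cancer cell lines that had been fixed, permeabilised and Hoechst-stained in one step. Before that, cells in 1536-well plates were kept overnight at 37 °C, pinned with five √10-spaced library-drug doses on vehicle-anchored plates, and cultured 5 days without medium change. Viability takes treated-well nuclei over vehicle-well nuclei and uses the median across plates. Plates were accepted only at control CV below 25% and at least one doubling.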

Row | Cell Line | relative viability
1 | NCI-H23 | 0.788
2 | NCI-H1299 | 1.05
3 | NCI-H647 | 1.05
4 | CAL-12T | 1.03
5 | NCI-H1651 | 0.956
6 | EPLC-272H | 1.04
7 | NCI-H2228 | 0.857
8 | NCI-H1792 | 0.602
9 | NCI-H1355 | 0.96
10 | NCI-H3122 | 0.979
11 | NCI-H1437 | 1.04
12 | NCI-H1755 | 1.02
13 | NCI-H2023 | 0.881
14 | HCC-15 | 0.85
15 | NCI-H1793 | 0.974
16 | PC-14 | 1.04
17 | EKVX | 0.963
18 | LC-2-ad | 0.89
19 | NCI-H1563 | 1.04
20 | NCI-H1944 | 0.768
21 | NCI-H1975 | 0.943
22 | RERF-LC-KJ | 0.937
23 | ABC-1 | 0.884
24 | NCI-H358 | 0.752
25 | NCI-H650 | 0.841
26 | PC-3 [JPC-3] | 1.04

Same assay, conditions: 0.1265 µM

Row | Cell Line | relative viability
27 | NCI-H23 | 0.501
28 | NCI-H1299 | 0.954
29 | NCI-H647 | 0.869
30 | CAL-12T | 0.863
31 | NCI-H1651 | 0.883
32 | EPLC-272H | 0.645
33 | NCI-H2228 | 0.781
34 | NCI-H1792 | 0.423
35 | NCI-H1355 | 0.794
36 | NCI-H3122 | 0.986
37 | NCI-H1437 | 0.918
38 | NCI-H1755 | 0.875
39 | NCI-H2023 | 0.613
40 | HCC-15 | 0.667
41 | NCI-H1793 | 0.738
42 | PC-14 | 0.769
43 | EKVX | 0.762
44 | LC-2-ad | 0.845
45 | NCI-H1563 | 0.918
46 | NCI-H1944 | 0.75
47 | NCI-H1975 | 0.981
48 | RERF-LC-KJ | 0.797
49 | ABC-1 | 0.738
50 | NCI-H358 | 0.46
51 | NCI-H650 | 0.649
52 | PC-3 [JPC-3] | 0.937

Same assay, conditions: 0.4 µM

Row | Cell Line | relative viability
53 | NCI-H23 | 0.523
54 | NCI-H1299 | 1.02
55 | NCI-H647 | 0.848
56 | CAL-12T | 0.884
57 | NCI-H1651 | 0.82
58 | EPLC-272H | 0.744
59 | NCI-H2228 | 0.743
60 | NCI-H1792 | 0.383
61 | NCI-H1355 | 0.797
62 | NCI-H3122 | 0.99
63 | NCI-H1437 | 0.679
64 | NCI-H1755 | 0.92
65 | NCI-H2023 | 0.547
66 | HCC-15 | 0.727
67 | NCI-H1793 | 0.67
68 | PC-14 | 0.875
69 | EKVX | 0.733
70 | LC-2-ad | 0.752
71 | NCI-H1563 | 0.805
72 | NCI-H1944 | 0.63
73 | NCI-H1975 | 0.649
74 | RERF-LC-KJ | 0.828
75 | ABC-1 | 0.51
76 | NCI-H358 | 0.237
77 | NCI-H650 | 0.784
78 | PC-3 [JPC-3] | 1.02

Same assay, conditions: 1.265 µM

Row | Cell Line | relative viability
79 | NCI-H23 | 0.553
80 | NCI-H1299 | 1.04
81 | NCI-H647 | 0.86
82 | CAL-12T | 0.664
83 | NCI-H1651 | 0.923
84 | EPLC-272H | 0.764
85 | NCI-H2228 | 0.652
86 | NCI-H1792 | 0.295
87 | NCI-H1355 | 0.818
88 | NCI-H3122 | 0.962
89 | NCI-H1437 | 0.714
90 | NCI-H1755 | 0.958
91 | NCI-H2023 | 0.394
92 | HCC-15 | 0.764
93 | NCI-H1793 | 1.04
94 | PC-14 | 0.946
95 | EKVX | 0.815
96 | LC-2-ad | 0.625
97 | NCI-H1563 | 0.934
98 | NCI-H1944 | 0.663
99 | NCI-H1975 | 0.754
100 | RERF-LC-KJ | 0.838
101 | ABC-1 | 0.507
102 | NCI-H358 | 0.326
103 | NCI-H650 | 0.585
104 | PC-3 [JPC-3] | 1.02

What follows are cell lines tested with CC1(C)CNc2cc(NC(=O)c3cccnc3NCc3ccncc3)ccc21 [Motesanib] in the same assay as above. Settings: 0.01 µM.
Outline: as §1

Row | Cell Line | relative viability
105 | NCI-H23 | 1.02
106 | NCI-H1299 | 1.01
107 | NCI-H647 | 0.827
108 | CAL-12T | 0.951
109 | NCI-H1651 | 1.02
110 | EPLC-272H | 0.918
111 | NCI-H2228 | 1.1
112 | NCI-H1792 | 0.742
113 | NCI-H1355 | 1.03
114 | NCI-H3122 | 0.98
115 | NCI-H1437 | 0.964
116 | NCI-H1755 | 1.01
117 | NCI-H2023 | 1.02
118 | HCC-15 | 0.955
119 | NCI-H1793 | 0.865
120 | PC-14 | 0.977
121 | EKVX | 0.919
122 | LC-2-ad | 0.992
123 | NCI-H1563 | 1.04
124 | NCI-H1944 | 0.946
125 | NCI-H1975 | 0.876
126 | RERF-LC-KJ | 0.899
127 | ABC-1 | 0.919
128 | NCI-H358 | 0.973
129 | NCI-H650 | 0.976
130 | PC-3 [JPC-3] | 1.05

Same assay, conditions: 0.03162 µM

Row | Cell Line | relative viability
131 | NCI-H23 | 0.915
132 | NCI-H1299 | 0.999
133 | NCI-H647 | 1
134 | CAL-12T | 0.975
135 | NCI-H1651 | 0.912
136 | EPLC-272H | 1.04
137 | NCI-H2228 | 1.03
138 | NCI-H1792 | 0.805
139 | NCI-H1355 | 1.02
140 | NCI-H3122 | 1.02
141 | NCI-H1437 | 0.958
142 | NCI-H1755 | 0.989
143 | NCI-H2023 | 0.906
144 | HCC-15 | 0.972
145 | NCI-H1793 | 1.02
146 | PC-14 | 0.995
147 | EKVX | 1
148 | LC-2-ad | 0.974
149 | NCI-H1563 | 0.973
150 | NCI-H1944 | 0.961
151 | NCI-H1975 | 0.914
152 | RERF-LC-KJ | 0.981
153 | ABC-1 | 0.938
154 | NCI-H358 | 0.948
155 | NCI-H650 | 1.04
156 | PC-3 [JPC-3] | 1.03

Same assay, conditions: 0.1 µM

Row | Cell Line | relative viability
157 | NCI-H23 | 0.758
158 | NCI-H1299 | 1.04
159 | NCI-H647 | 0.93
160 | CAL-12T | 0.967
161 | NCI-H1651 | 0.946
162 | EPLC-272H | 0.761
163 | NCI-H2228 | 0.971
164 | NCI-H1792 | 0.908
165 | NCI-H1355 | 0.978
166 | NCI-H3122 | 1.04
167 | NCI-H1437 | 0.998
168 | NCI-H1755 | 1.03
169 | NCI-H2023 | 0.955
170 | HCC-15 | 0.896
171 | NCI-H1793 | 0.867
172 | PC-14 | 0.974
173 | EKVX | 1.01
174 | LC-2-ad | 1.01
175 | NCI-H1563 | 1.09
176 | NCI-H1944 | 0.914
177 | NCI-H1975 | 0.996
178 | RERF-LC-KJ | 1
179 | ABC-1 | 0.863
180 | NCI-H358 | 0.959
181 | NCI-H650 | 0.992
182 | PC-3 [JPC-3] | 1.05

Same assay, conditions: 0.3162 µM

Row | Cell Line | relative viability
183 | NCI-H23 | 1.08
184 | NCI-H1299 | 1.02
185 | NCI-H647 | 1.06
186 | CAL-12T | 1.05
187 | NCI-H1651 | 0.962
188 | EPLC-272H | 1.04
189 | NCI-H2228 | 1.11
190 | NCI-H1792 | 0.918
191 | NCI-H1355 | 1.04
192 | NCI-H3122 | 1.05
193 | NCI-H1437 | 1
194 | NCI-H1755 | 1.07
195 | NCI-H2023 | 1.01
196 | HCC-15 | 1.16
197 | NCI-H1793 | 0.963
198 | PC-14 | 1.07
199 | EKVX | 0.928
200 | LC-2-ad | 1.07
201 | NCI-H1563 | 0.953
202 | NCI-H1944 | 1.05
203 | NCI-H1975 | 0.995
204 | RERF-LC-KJ | 0.952
205 | ABC-1 | 1.09
206 | NCI-H358 | 1.16
207 | NCI-H650 | 1.07
208 | PC-3 [JPC-3] | 1.03

Same assay, conditions: 1 µM

Row | Cell Line | relative viability
209 | NCI-H23 | 1.04
210 | NCI-H1299 | 1.05
211 | NCI-H647 | 0.988
212 | CAL-12T | 0.965
213 | NCI-H1651 | 0.947
214 | EPLC-272H | 0.976
215 | NCI-H2228 | 1.06
216 | NCI-H1792 | 1.12
217 | NCI-H1355 | 1.01
218 | NCI-H3122 | 1.05
219 | NCI-H1437 | 0.957
220 | NCI-H1755 | 1.03
221 | NCI-H2023 | 0.979
222 | HCC-15 | 1.01
223 | NCI-H1793 | 0.967
224 | PC-14 | 1.05
225 | EKVX | 1.08
226 | LC-2-ad | 0.981
227 | NCI-H1563 | 0.994
228 | NCI-H1944 | 0.989
229 | NCI-H1975 | 0.98
230 | RERF-LC-KJ | 1.01
231 | ABC-1 | 0.97
232 | NCI-H358 | 1.2

From the supplement of paper PMC10307832
